Test results: the supplement of paper PMC10307832

What was measured:
Assay in all cases: relative viability (nuclei count vs DMSO), 5 days (fraction); higher = more cells survive
Vemurafenib + Navitoclax = compound: CCCS(=O)(=O)Nc1ccc(F)c(C(=O)c2c[nH]c3ncc(-c4ccc(Cl)cc4)cc23)c1F [Vemurafenib] + CC1(C)CCC(c2ccc(Cl)cc2)=C(CN2CCN(c3ccc(C(=O)NS(=O)(=O)c4ccc(N[C@H](CCN5CCOCC5)CSc5ccccc5)c(S(=O)(=O)C(F)(F)F)c4)cc3)CC2)C1 [Navitoclax] (partner 0.5 µM)
Outline: (§1)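 Cells from lung cancer lines were seeded into 1536-well plates and, one day later, dosed by pin tool. Treatments were either a single drug or a fixed dose of an anchor drug with five library-drug doses (not always all listed) in √10 steps. After 5 days, nuclei were stained in a one-step fixation (final 0.05% Triton X-100, 1% formaldehyde, 1 ug/ml Hoechst) and counted on 4× images, and relative viability is the treated-to-vehicle nuclei ratio, as the median of duplicate plates.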

Alpelisib + Navitoclax = compound: Cc1nc(NC(=O)N2CCC[C@H]2C(N)=O)sc1-c1ccnc(C(C)(C)C(F)(F)F)c1 [Alpelisib] + CC1(C)CCC(c2ccc(Cl)cc2)=C(CN2CCN(c3ccc(C(=O)NS(=O)(=O)c4ccc(N[C@H](CCN5CCOCC5)CSc5ccccc5)c(S(=O)(=O)C(F)(F)F)c4)cc3)CC2)C1 [Navitoclax] (partner 0.5 µM)
Outline: as §1

Vemurafenib + Decitabine = compound: CCCS(=O)(=O)Nc1ccc(F)c(C(=O)c2c[nH]c3ncc(-c4ccc(Cl)cc4)cc23)c1F [Vemurafenib] + Nc1ncn([C@H]2C[C@H](O)[C@@H](CO)O2)c(=O)n1 [Decitabine] (partner 2 µM)
Outline: as §1

OSI-027 + Pictilisib = compound: COc1cccc2cc(-c3nc([C@H]4CC[C@H](C(=O)O)CC4)n4ncnc(N)c34)[nH]c12 [OSI-027] + CS(=O)(=O)N1CCN(Cc2cc3nc(-c4cccc5[nH]ncc45)nc(N4CCOCC4)c3s2)CC1 [Pictilisib] (partner 1 µM)
Outline: as §1

Cell Line | relative viability (Vemurafenib + Navitoclax; first compound 0.03162 µM) | relative viability (Vemurafenib + Navitoclax; first compound 0.1 µM) | relative viability (Vemurafenib + Navitoclax; first compound 0.3162 µM) | relative viability (Vemurafenib + Navitoclax; first compound 1 µM) | relative viability (Alpelisib + Navitoclax; first compound 0.04 µM) | relative viability (Alpelisib + Navitoclax; first compound 0.1265 µM) | relative viability (Alpelisib + Navitoclax; first compound 0.4 µM) | relative viability (Alpelisib + Navitoclax; first compound 1.265 µM) | relative viability (Alpelisib + Navitoclax; first compound 4 µM) | relative viability (Vemurafenib + Decitabine; first compound 0.03162 µM) | relative viability (Vemurafenib + Decitabine; first compound 0.1 µM) | relative viability (Vemurafenib + Decitabine; first compound 0.3162 µM) | relative viability (Vemurafenib + Decitabine; first compound 1 µM) | relative viability (OSI-027 + Pictilisib; first compound 0.01 µM) | relative viability (OSI-027 + Pictilisib; first compound 0.03162 µM) | relative viability (OSI-027 + Pictilisib; first compound 0.1 µM) | relative viability (OSI-027 + Pictilisib; first compound 0.3162 µM) | relative viability (OSI-027 + Pictilisib; first compound 1 µM)
201T | 1.16 | 1.26 | 1.2 | 1.14 | 1.16 | 1.16 | 1.2 | 1.15 | 1.14 | 0.821 | 0.825 | 0.886 | 0.799 | 0.688 | 0.683 | 0.667 | 0.553 | 0.541
A549 | 1.09 | 1.29 | 1.31 | 1.16 | 1.23 | 1.18 | 1.06 | 0.851 | 0.715 | 0.163 | 0.227 | 0.155 | 0.224 | 0.53 | – | 0.276 | 0.14 | 0.142
A-427 | 0.969 | 0.887 | 0.977 | 0.94 | 0.837 | 0.884 | 0.997 | 0.874 | 0.884 | 0.553 | 0.456 | – | 0.591 | 0.61 | 0.664 | 0.699 | 0.495 | 0.378
ABC-1 | – | – | – | – | – | – | – | – | – | 1.01 | 1.13 | 0.967 | 0.977 | 0.627 | 0.653 | 0.632 | 0.445 | 0.319
BEN | 0.0514 | 0.0623 | 0.0526 | 0.0536 | 0.0833 | 0.0642 | 0.161 | 0.0705 | 0.0615 | 0.577 | 0.756 | 0.366 | 0.675 | 0.59 | 0.472 | 0.371 | 0.328 | 0.272
CAL-12T | 1.28 | 1.2 | 1.47 | 1.28 | 1.35 | 1.29 | 1.22 | 1.16 | 1.47 | – | – | – | – | 0.401 | 0.394 | 0.315 | 0.299 | 0.294
COR-L23 | 0.841 | 0.988 | 0.76 | 0.953 | 0.923 | 1.02 | 1.07 | 0.789 | 0.753 | 0.417 | 0.464 | 0.336 | 0.424 | 0.834 | 0.877 | 0.668 | 0.459 | 0.171
COR-L 105 | 0.647 | – | 0.815 | 0.841 | 0.607 | 0.633 | 0.728 | 0.615 | 0.554 | 0.556 | – | 0.645 | 0.651 | 0.389 | 0.453 | 0.358 | 0.377 | 0.254
Calu-6 | 0.866 | 0.814 | 0.609 | 0.707 | 0.834 | 0.905 | 0.882 | 0.633 | 0.621 | – | – | – | – | 0.94 | 0.762 | 0.655 | 0.544 | 0.319
ChaGo-K-1 | 0.949 | 0.809 | – | 0.958 | 1.01 | – | 1.14 | 0.731 | 0.583 | 0.548 | 0.47 | 0.493 | 0.512 | 0.665 | 1.02 | 0.356 | 0.492 | 0.381
EBC-1 | 0.409 | 0.408 | 0.453 | 0.461 | 0.417 | 0.312 | 0.339 | 0.233 | 0.281 | – | – | – | – | 0.344 | 0.359 | 0.299 | 0.216 | 0.238
EKVX | 0.898 | – | 1.03 | 0.847 | 0.969 | 0.903 | 1.12 | 0.84 | 0.75 | 0.368 | – | 0.37 | 0.397 | 0.456 | 0.384 | 0.368 | 0.302 | 0.177
EMC-BAC-2 | 1.15 | 1.01 | 1.17 | 1.14 | 1.11 | 1.08 | 1.17 | 0.956 | 0.879 | 0.958 | 0.934 | – | 0.96 | 0.597 | 0.47 | 0.469 | 0.431 | 0.376
EPLC-272H | 1.05 | 0.916 | 1.13 | 1.06 | 1.16 | 1.05 | 1.19 | 0.722 | 0.79 | 0.337 | 0.367 | 0.472 | 0.399 | 0.287 | 0.308 | 0.296 | 0.316 | 0.215
H3255 | 0.493 | – | 0.57 | 0.386 | 0.463 | 0.47 | 0.524 | 0.384 | 0.407 | 0.524 | – | 0.604 | 0.605 | 0.466 | 0.471 | 0.441 | 0.379 | 0.24
HARA | 1.09 | – | 1.13 | 1.14 | 1.13 | 1.17 | 1.16 | 1.2 | 0.575 | 0.458 | 0.368 | 0.673 | 0.703 | 0.334 | 0.402 | 0.397 | 0.242 | 0.258
HCC-15 | 0.679 | 0.71 | 0.736 | 0.73 | 0.627 | 0.7 | 0.74 | 0.598 | 0.454 | 0.561 | 0.64 | 0.59 | 0.77 | 0.768 | 0.771 | 0.68 | 0.596 | 0.367
HCC-44 | 0.879 | 0.931 | 0.973 | 1.03 | 0.949 | 0.983 | 1.04 | 0.802 | 0.735 | 0.869 | 1.02 | 0.949 | 1 | 0.521 | 0.572 | 0.481 | 0.32 | 0.365
HCC-78 | 0.818 | 0.608 | 1.13 | 0.656 | 0.745 | 0.609 | 0.738 | 0.373 | 0.518 | 0.61 | 0.57 | 0.705 | 0.744 | 0.202 | 0.225 | 0.184 | 0.19 | 0.207
